Results taken from PubChem BioAssay (NCI).
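Values below derive from 48-hour exposures of cells grown in 96-well plates, with endpoints linearly interpolated between the two concentrations bracketing the appropriate inhibition level. TGI denotes the concentration required for complete inhibition of growth.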

Assays:
Experiment in all cases: inhibition of tumour cell growth, NCI panel, 48 h
[1] = test system: SK-OV-3 ovarian
[2] = test system: LXFL 529 NSCLC
[3] = test system: CCRF-CEM leukemia
[4] = test system: XF 498 CNS
[5] = test system: U251 CNS
[6] = test system: LOX IMVI melanoma
[7] = test system: NCI-H460 lung
[8] = test system: DMS 273 small cell lung
[9] = test system: MOLT-4 leukemia
[10] = test system: SNB-19 CNS
[11] = test system: K-562 leukemia
[12] = test system: RXF-631 renal
[13] = test system: KM20L2 colon
[14] = test system: M14 melanoma
[15] = test system: OVCAR-4 ovarian
[16] = test system: IGROV1 ovarian
[17] = test system: SK-MEL-28 melanoma
[18] = test system: ACHN renal
[19] = test system: M19-MEL melanoma
[20] = test system: HCT-15 colon
[21] = test system: NCI-H23 lung
[22] = test system: HOP-18 NSCLC
[23] = test system: HOP-92 NSCLC
[24] = test system: RPMI-8226 leukemia
[25] = test system: A498 renal
[26] = test system: HL-60(TB) leukemia
[27] = test system: SN12C renal
[28] = test system: DMS 114 small cell lung
[29] = test system: RXF 393 renal
[30] = test system: SNB-78 CNS
[31] = test system: SF-539 CNS
[32] = test system: UACC-62 melanoma
[33] = test system: COLO 205 colon
[34] = test system: A549 NSCLC
[35] = test system: OVCAR-8 ovarian
[36] = test system: DU-145 prostate
[37] = test system: EKVX NSCLC
[38] = test system: NCI-H226 lung
[39] = test system: 786-0 renal
[40] = test system: PC-3 prostate
[41] = test system: SF-268 CNS
[42] = test system: BT-549 breast
[43] = test system: SK-MEL-2 melanoma
[44] = test system: MCF7 breast
[45] = test system: UO-31 renal
[46] = test system: T-47D breast
[47] = test system: SNB-75 CNS
[48] = test system: KM12 colon
[49] = test system: MDA-MB-231 breast
[50] = test system: SW-620 colon
[51] = test system: OVCAR-3 ovarian
[52] = test system: MALME-3M melanoma
[53] = test system: SR leukemia
[54] = test system: HT29 colon
[55] = test system: MDA-N
[56] = test system: UACC-257 melanoma
[57] = test system: TK-10 renal
[58] = test system: HOP-62 NSCLC
[59] = test system: HCC-2998 colon
[60] = test system: OVCAR-5 ovarian
[61] = test system: NCI/ADR-RES ovarian
[62] = test system: HCT-116 colon
[63] = test system: MDA-MB-435
[64] = test system: CAKI-1 renal
[65] = test system: SK-MEL-5 melanoma
[66] = test system: HS 578T breast
[67] = test system: DLD-1 colon
[68] = test system: SF-295 CNS
[69] = test system: NCI-H522 lung

O=C(O)CCC1CCc2cccc(O)c2C1=O (stereo not drawn)
TGI [1]: > 100 µM | TGI [2]: > 100 µM | TGI [3]: > 100 µM | TGI [4]: > 100 µM | TGI [5]: > 100 µM | TGI [6]: > 100 µM | TGI [7]: > 100 µM | TGI [8]: > 100 µM | TGI [9]: > 100 µM | TGI [10]: > 100 µM | TGI [11]: > 100 µM | TGI [12]: > 100 µM | TGI [13]: > 100 µM | TGI [14]: > 100 µM | TGI [15]: > 100 µM | TGI [16]: > 100 µM | TGI [17]: > 100 µM | TGI [18]: > 100 µM | TGI [19]: > 100 µM | TGI [20]: > 100 µM | TGI [21]: > 100 µM | TGI [22]: > 100 µM | TGI [23]: > 100 µM | TGI [24]: > 100 µM | TGI [25]: > 100 µM | TGI [26]: > 100 µM | TGI [27]: > 100 µM | TGI [28]: > 100 µM | TGI [29]: > 100 µM | TGI [30]: > 100 µM | TGI [31]: > 100 µM | TGI [32]: > 100 µM | TGI [33]: > 100 µM

Nc1ncnc2c1ncn2C1C=C(CO)C(O)C1O (stereo not drawn)
TGI [1]: 44.2 µM | TGI [2]: > 100 µM | TGI [34]: > 100 µM | TGI [35]: > 100 µM | TGI [36]: 35.8 µM | TGI [3]: 14 µM | TGI [37]: > 100 µM | TGI [38]: > 100 µM | TGI [4]: > 100 µM | TGI [5]: > 100 µM | TGI [6]: 45.4 µM | TGI [7]: 34.8 µM | TGI [8]: 28.3 µM | TGI [9]: 30.9 µM | TGI [39]: > 100 µM | TGI [10]: > 100 µM | TGI [40]: 60.5 µM | TGI [11]: 39.6 µM | TGI [41]: > 100 µM | TGI [42]: > 100 µM | TGI [43]: > 80.4 µM | TGI [44]: > 100 µM | TGI [12]: 30 µM | TGI [13]: > 100 µM | TGI [45]: 19.9 µM | TGI [46]: 10.2 µM | TGI [14]: > 100 µM | TGI [47]: 48.9 µM | TGI [48]: > 100 µM | TGI [49]: 52.5 µM | TGI [50]: > 86.8 µM | TGI [15]: > 56.8 µM | TGI [16]: > 54.3 µM | TGI [17]: > 100 µM | TGI [51]: > 85.2 µM | TGI [18]: 66.9 µM | TGI [52]: > 100 µM | TGI [53]: 3.24 µM | TGI [54]: > 100 µM | TGI [19]: > 100 µM | TGI [20]: > 53.7 µM | TGI [21]: 35.4 µM | TGI [22]: > 100 µM | TGI [23]: > 76.1 µM | TGI [24]: > 37 µM | TGI [55]: > 100 µM | TGI [25]: 43.5 µM | TGI [56]: > 100 µM | TGI [57]: > 84.9 µM | TGI [58]: > 100 µM | TGI [59]: > 77.3 µM | TGI [60]: > 100 µM | TGI [26]: 2.73 µM | TGI [61]: 74.8 µM | TGI [27]: > 100 µM | TGI [28]: 69.2 µM | TGI [62]: 12.6 µM | TGI [29]: 42.8 µM | TGI [63]: > 100 µM | TGI [64]: > 93.6 µM | TGI [30]: > 100 µM | TGI [65]: > 100 µM | TGI [31]: > 91.1 µM | TGI [66]: > 100 µM | TGI [32]: > 57.5 µM | TGI [67]: > 100 µM | TGI [33]: 19.5 µM | TGI [68]: > 100 µM | TGI [69]: 35.6 µM

COc1cc(C=O)c(-c2c(C=O)ccc3c2OCO3)c(OC)c1OC
TGI [1]: > 100 µM | TGI [2]: > 100 µM | TGI [34]: > 100 µM | TGI [35]: > 100 µM | TGI [3]: > 100 µM | TGI [37]: > 100 µM | TGI [38]: > 100 µM | TGI [5]: > 100 µM | TGI [6]: > 100 µM | TGI [7]: > 100 µM | TGI [8]: > 100 µM | TGI [9]: > 100 µM | TGI [39]: > 100 µM | TGI [10]: > 100 µM | TGI [11]: > 100 µM | TGI [41]: > 100 µM | TGI [43]: > 100 µM | TGI [12]: > 100 µM | TGI [13]: > 100 µM | TGI [45]: > 100 µM | TGI [14]: > 100 µM | TGI [47]: > 100 µM | TGI [48]: > 100 µM | TGI [50]: > 100 µM | TGI [15]: > 100 µM | TGI [16]: > 100 µM | TGI [17]: > 100 µM | TGI [51]: > 100 µM | TGI [18]: > 100 µM | TGI [52]: > 100 µM | TGI [53]: > 100 µM | TGI [54]: > 100 µM | TGI [19]: > 100 µM | TGI [20]: > 100 µM | TGI [21]: > 100 µM | TGI [22]: > 100 µM | TGI [24]: > 100 µM | TGI [25]: > 100 µM | TGI [56]: > 100 µM | TGI [57]: > 100 µM | TGI [58]: > 100 µM | TGI [59]: > 100 µM | TGI [60]: > 100 µM | TGI [26]: 81.1 µM | TGI [27]: > 100 µM | TGI [28]: > 100 µM | TGI [62]: > 100 µM | TGI [64]: > 100 µM | TGI [30]: > 100 µM | TGI [65]: > 100 µM | TGI [31]: > 100 µM | TGI [32]: > 100 µM | TGI [67]: > 100 µM | TGI [33]: > 100 µM | TGI [68]: > 100 µM | TGI [69]: > 100 µM
